In the supplement of paper PMC8967900:

system: NALL-1; assay: selective drug sensitivity score (sDSS, relative to normal bone marrow) (sDSS (score)); higher = more potent and effective on the cell line relative to normal bone marrow cells; details: 72 h
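Further: ALL cell lines in 384-well plates, five doses spanning 10,000-fold, each plate scaled between vehicle and 100 µmol/L benzalkonium chloride controls, sDSS an adapted area-under-curve metric.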

SMILES | selective drug sensitivity score
C1=N/C2=N/c3ccc(OCCN4CCCC4)c(c3)COC/C=C/COCc3cccc(c3)C(=C1)N2 [Pacritinib] (top concentration 10000 nM) | -8.4
Cc1[nH]c2ccccc2c1CCNCc1ccc(/C=C/C(=O)NO)cc1 [Panobinostat] (top concentration 1000 nM) | -0.46
Cc1ccc(Nc2nccc(N(C)c3ccc4c(C)n(C)nc4c3)n2)cc1S(N)(=O)=O [Pazopanib] (top concentration 10000 nM) | -1.26
Nc1nc2[nH]cc(CCc3ccc(C(=O)N[C@@H](CCC(=O)O)C(=O)O)cc3)c2c(=O)[nH]1 [Pemetrexed] (top concentration 10000 nM) | 12.2
Cc1ccc(C(=O)Nc2ccc(CN3CCN(C)CC3)c(C(F)(F)F)c2)cc1C#Cc1cnc2cccnn12 [Ponatinib] (top concentration 1000 nM) | -3.08
C[C@]12C=CC(=O)C=C1CC[C@@H]1[C@@H]2[C@@H](O)C[C@@]2(C)[C@H]1CC[C@]2(O)C(=O)CO [Prednisolone] (top concentration 10000 nM) | 18
CC(C)(C)c1cc(NC(=O)Nc2ccc(-c3cn4c(n3)sc3cc(OCCN5CCOCC5)ccc34)cc2)no1 [Quizartinib] (top concentration 1000 nM) | -1.02
Nc1cc(F)ccc1NC(=O)/C=C/c1cnn(C/C=C/c2ccccc2)c1 [RGFP966] (top concentration 10000 nM) | 12.2
CNC(=O)c1cc(Oc2ccc(NC(=O)Nc3ccc(Cl)c(C(F)(F)F)c3)c(F)c2)ccn1 [Regorafenib] (top concentration 10000 nM) | 3.24
CN(C)Cc1ccc(S(=O)(=O)n2ccc(/C=C/C(=O)NO)c2)cc1 [Resminostat] (top concentration 10000 nM) | -4.46
COc1cc(OC)c(/C=C/S(=O)(=O)Cc2ccc(OC)c(NCC(=O)O)c2)c(OC)c1 [Rigosertib] (top concentration 10000 nM) | 16.5
COc1ccc(CCc2nc3cc(-c4c(C)noc4C)ccc3n2C[C@H](C)N2CCOCC2)cc1Cl [SGC-CBP30] (top concentration 25000 nM) | -0.62
CCS(=O)(=O)c1cccc(-c2cc(C(=O)NC3CCN(C)CC3)c(C)c3[nH]c4ncc(C)cc4c23)c1 [TAK-901] (top concentration 1000 nM) | 11.8
Nc1nc(NC2CC2)cc(-c2cccc(Cl)c2Cl)n1 [TH588] (top concentration 25000 nM) | -0.28
CC(=O)Nc1ccc(C(=O)Nc2ccccc2N)cc1 [Tacedinaline] (top concentration 1000 nM) | -0.02
Cn1ncnc1[C@H]1c2n[nH]c(=O)c3cc(F)cc(c23)N[C@@H]1c1ccc(F)cc1 [Talazoparib] (top concentration 1000 nM) | 8.78
COc1cccc2c1c(O)c(C(=O)N(C)c1ccc(C(F)(F)F)cc1)c(=O)n2C [Tasquinimod] (top concentration 10000 nM) | -0.42
Nc1nc2[nH]cnc2c(=S)[nH]1 [Thioguanine] (top concentration 10000 nM) | 8.64

system: 697; assay: as above; details: 72 h

SMILES | selective drug sensitivity score
C1=N/C2=N/c3ccc(OCCN4CCCC4)c(c3)COC/C=C/COCc3cccc(c3)C(=C1)N2 [Pacritinib] (top concentration 10000 nM) | -2.6
Cc1[nH]c2ccccc2c1CCNCc1ccc(/C=C/C(=O)NO)cc1 [Panobinostat] (top concentration 1000 nM) | 7.64
Cc1ccc(Nc2nccc(N(C)c3ccc4c(C)n(C)nc4c3)n2)cc1S(N)(=O)=O [Pazopanib] (top concentration 10000 nM) | 4.94
Nc1nc2[nH]cc(CCc3ccc(C(=O)N[C@@H](CCC(=O)O)C(=O)O)cc3)c2c(=O)[nH]1 [Pemetrexed] (top concentration 10000 nM) | 28.3
Cc1ccc(C(=O)Nc2ccc(CN3CCN(C)CC3)c(C(F)(F)F)c2)cc1C#Cc1cnc2cccnn12 [Ponatinib] (top concentration 1000 nM) | 6.62
C[C@]12C=CC(=O)C=C1CC[C@@H]1[C@@H]2[C@@H](O)C[C@@]2(C)[C@H]1CC[C@]2(O)C(=O)CO [Prednisolone] (top concentration 10000 nM) | 17.8
CC(C)(C)c1cc(NC(=O)Nc2ccc(-c3cn4c(n3)sc3cc(OCCN5CCOCC5)ccc34)cc2)no1 [Quizartinib] (top concentration 1000 nM) | 0.98
Nc1cc(F)ccc1NC(=O)/C=C/c1cnn(C/C=C/c2ccccc2)c1 [RGFP966] (top concentration 10000 nM) | 13.2
CNC(=O)c1cc(Oc2ccc(NC(=O)Nc3ccc(Cl)c(C(F)(F)F)c3)c(F)c2)ccn1 [Regorafenib] (top concentration 10000 nM) | 7.94
CN(C)Cc1ccc(S(=O)(=O)n2ccc(/C=C/C(=O)NO)c2)cc1 [Resminostat] (top concentration 10000 nM) | 7.74
COc1cc(OC)c(/C=C/S(=O)(=O)Cc2ccc(OC)c(NCC(=O)O)c2)c(OC)c1 [Rigosertib] (top concentration 10000 nM) | 17
COc1ccc(CCc2nc3cc(-c4c(C)noc4C)ccc3n2C[C@H](C)N2CCOCC2)cc1Cl [SGC-CBP30] (top concentration 25000 nM) | 2.48
CCS(=O)(=O)c1cccc(-c2cc(C(=O)NC3CCN(C)CC3)c(C)c3[nH]c4ncc(C)cc4c23)c1 [TAK-901] (top concentration 1000 nM) | 12.8
Nc1nc(NC2CC2)cc(-c2cccc(Cl)c2Cl)n1 [TH588] (top concentration 25000 nM) | 8.72
CC(=O)Nc1ccc(C(=O)Nc2ccccc2N)cc1 [Tacedinaline] (top concentration 1000 nM) | 1.88
Cn1ncnc1[C@H]1c2n[nH]c(=O)c3cc(F)cc(c23)N[C@@H]1c1ccc(F)cc1 [Talazoparib] (top concentration 1000 nM) | 15.8
COc1cccc2c1c(O)c(C(=O)N(C)c1ccc(C(F)(F)F)cc1)c(=O)n2C [Tasquinimod] (top concentration 10000 nM) | -0.42
Nc1nc2[nH]cnc2c(=S)[nH]1 [Thioguanine] (top concentration 10000 nM) | 8.84

system: MOLT-14; assay: as above; details: 72 h

SMILES | selective drug sensitivity score
C1=N/C2=N/c3ccc(OCCN4CCCC4)c(c3)COC/C=C/COCc3cccc(c3)C(=C1)N2 [Pacritinib] (top concentration 10000 nM) | -4
Cc1[nH]c2ccccc2c1CCNCc1ccc(/C=C/C(=O)NO)cc1 [Panobinostat] (top concentration 1000 nM) | 6.74
Cc1ccc(Nc2nccc(N(C)c3ccc4c(C)n(C)nc4c3)n2)cc1S(N)(=O)=O [Pazopanib] (top concentration 10000 nM) | -1.26
Nc1nc2[nH]cc(CCc3ccc(C(=O)N[C@@H](CCC(=O)O)C(=O)O)cc3)c2c(=O)[nH]1 [Pemetrexed] (top concentration 10000 nM) | 20.2
Cc1ccc(C(=O)Nc2ccc(CN3CCN(C)CC3)c(C(F)(F)F)c2)cc1C#Cc1cnc2cccnn12 [Ponatinib] (top concentration 1000 nM) | 7.42
C[C@]12C=CC(=O)C=C1CC[C@@H]1[C@@H]2[C@@H](O)C[C@@]2(C)[C@H]1CC[C@]2(O)C(=O)CO [Prednisolone] (top concentration 10000 nM) | -0.5
CC(C)(C)c1cc(NC(=O)Nc2ccc(-c3cn4c(n3)sc3cc(OCCN5CCOCC5)ccc34)cc2)no1 [Quizartinib] (top concentration 1000 nM) | -1.02
Nc1cc(F)ccc1NC(=O)/C=C/c1cnn(C/C=C/c2ccccc2)c1 [RGFP966] (top concentration 10000 nM) | 17.1
CNC(=O)c1cc(Oc2ccc(NC(=O)Nc3ccc(Cl)c(C(F)(F)F)c3)c(F)c2)ccn1 [Regorafenib] (top concentration 10000 nM) | 4.04
CN(C)Cc1ccc(S(=O)(=O)n2ccc(/C=C/C(=O)NO)c2)cc1 [Resminostat] (top concentration 10000 nM) | 9.74
COc1cc(OC)c(/C=C/S(=O)(=O)Cc2ccc(OC)c(NCC(=O)O)c2)c(OC)c1 [Rigosertib] (top concentration 10000 nM) | 17.9
COc1ccc(CCc2nc3cc(-c4c(C)noc4C)ccc3n2C[C@H](C)N2CCOCC2)cc1Cl [SGC-CBP30] (top concentration 25000 nM) | 4.58
CCS(=O)(=O)c1cccc(-c2cc(C(=O)NC3CCN(C)CC3)c(C)c3[nH]c4ncc(C)cc4c23)c1 [TAK-901] (top concentration 1000 nM) | 7.26
Nc1nc(NC2CC2)cc(-c2cccc(Cl)c2Cl)n1 [TH588] (top concentration 25000 nM) | 10.8
CC(=O)Nc1ccc(C(=O)Nc2ccccc2N)cc1 [Tacedinaline] (top concentration 1000 nM) | -0.02
Cn1ncnc1[C@H]1c2n[nH]c(=O)c3cc(F)cc(c23)N[C@@H]1c1ccc(F)cc1 [Talazoparib] (top concentration 1000 nM) | 10.5
COc1cccc2c1c(O)c(C(=O)N(C)c1ccc(C(F)(F)F)cc1)c(=O)n2C [Tasquinimod] (top concentration 10000 nM) | -0.42
Nc1nc2[nH]cnc2c(=S)[nH]1 [Thioguanine] (top concentration 10000 nM) | 15.7

system: MN-60; assay: as above; details: 72 h

SMILES | selective drug sensitivity score
C1=N/C2=N/c3ccc(OCCN4CCCC4)c(c3)COC/C=C/COCc3cccc(c3)C(=C1)N2 [Pacritinib] (top concentration 10000 nM) | -9.6
Cc1[nH]c2ccccc2c1CCNCc1ccc(/C=C/C(=O)NO)cc1 [Panobinostat] (top concentration 1000 nM) | -1.46
Cc1ccc(Nc2nccc(N(C)c3ccc4c(C)n(C)nc4c3)n2)cc1S(N)(=O)=O [Pazopanib] (top concentration 10000 nM) | -0.86
Nc1nc2[nH]cc(CCc3ccc(C(=O)N[C@@H](CCC(=O)O)C(=O)O)cc3)c2c(=O)[nH]1 [Pemetrexed] (top concentration 10000 nM) | 11.6
Cc1ccc(C(=O)Nc2ccc(CN3CCN(C)CC3)c(C(F)(F)F)c2)cc1C#Cc1cnc2cccnn12 [Ponatinib] (top concentration 1000 nM) | -0.58
C[C@]12C=CC(=O)C=C1CC[C@@H]1[C@@H]2[C@@H](O)C[C@@]2(C)[C@H]1CC[C@]2(O)C(=O)CO [Prednisolone] (top concentration 10000 nM) | -3
CC(C)(C)c1cc(NC(=O)Nc2ccc(-c3cn4c(n3)sc3cc(OCCN5CCOCC5)ccc34)cc2)no1 [Quizartinib] (top concentration 1000 nM) | -1.52
Nc1cc(F)ccc1NC(=O)/C=C/c1cnn(C/C=C/c2ccccc2)c1 [RGFP966] (top concentration 10000 nM) | 3.04
CNC(=O)c1cc(Oc2ccc(NC(=O)Nc3ccc(Cl)c(C(F)(F)F)c3)c(F)c2)ccn1 [Regorafenib] (top concentration 10000 nM) | 1.34
CN(C)Cc1ccc(S(=O)(=O)n2ccc(/C=C/C(=O)NO)c2)cc1 [Resminostat] (top concentration 10000 nM) | 2.34
COc1cc(OC)c(/C=C/S(=O)(=O)Cc2ccc(OC)c(NCC(=O)O)c2)c(OC)c1 [Rigosertib] (top concentration 10000 nM) | 8.96
COc1ccc(CCc2nc3cc(-c4c(C)noc4C)ccc3n2C[C@H](C)N2CCOCC2)cc1Cl [SGC-CBP30] (top concentration 25000 nM) | 2.78
CCS(=O)(=O)c1cccc(-c2cc(C(=O)NC3CCN(C)CC3)c(C)c3[nH]c4ncc(C)cc4c23)c1 [TAK-901] (top concentration 1000 nM) | -2.64
Nc1nc(NC2CC2)cc(-c2cccc(Cl)c2Cl)n1 [TH588] (top concentration 25000 nM) | -0.58
CC(=O)Nc1ccc(C(=O)Nc2ccccc2N)cc1 [Tacedinaline] (top concentration 1000 nM) | -0.02
Cn1ncnc1[C@H]1c2n[nH]c(=O)c3cc(F)cc(c23)N[C@@H]1c1ccc(F)cc1 [Talazoparib] (top concentration 1000 nM) | -4.92
COc1cccc2c1c(O)c(C(=O)N(C)c1ccc(C(F)(F)F)cc1)c(=O)n2C [Tasquinimod] (top concentration 10000 nM) | -0.22
Nc1nc2[nH]cnc2c(=S)[nH]1 [Thioguanine] (top concentration 10000 nM) | 10

system: DND-41; assay: as above; details: 72 h

SMILES | selective drug sensitivity score
C1=N/C2=N/c3ccc(OCCN4CCCC4)c(c3)COC/C=C/COCc3cccc(c3)C(=C1)N2 [Pacritinib] (top concentration 10000 nM) | -4.7
Cc1[nH]c2ccccc2c1CCNCc1ccc(/C=C/C(=O)NO)cc1 [Panobinostat] (top concentration 1000 nM) | 5.04
Cc1ccc(Nc2nccc(N(C)c3ccc4c(C)n(C)nc4c3)n2)cc1S(N)(=O)=O [Pazopanib] (top concentration 10000 nM) | 0.04
Nc1nc2[nH]cc(CCc3ccc(C(=O)N[C@@H](CCC(=O)O)C(=O)O)cc3)c2c(=O)[nH]1 [Pemetrexed] (top concentration 10000 nM) | 18.6
Cc1ccc(C(=O)Nc2ccc(CN3CCN(C)CC3)c(C(F)(F)F)c2)cc1C#Cc1cnc2cccnn12 [Ponatinib] (top concentration 1000 nM) | 1.42
C[C@]12C=CC(=O)C=C1CC[C@@H]1[C@@H]2[C@@H](O)C[C@@]2(C)[C@H]1CC[C@]2(O)C(=O)CO [Prednisolone] (top concentration 10000 nM) | 29.4
CC(C)(C)c1cc(NC(=O)Nc2ccc(-c3cn4c(n3)sc3cc(OCCN5CCOCC5)ccc34)cc2)no1 [Quizartinib] (top concentration 1000 nM) | 5.38
Nc1cc(F)ccc1NC(=O)/C=C/c1cnn(C/C=C/c2ccccc2)c1 [RGFP966] (top concentration 10000 nM) | 6.84
CNC(=O)c1cc(Oc2ccc(NC(=O)Nc3ccc(Cl)c(C(F)(F)F)c3)c(F)c2)ccn1 [Regorafenib] (top concentration 10000 nM) | 4.44
CN(C)Cc1ccc(S(=O)(=O)n2ccc(/C=C/C(=O)NO)c2)cc1 [Resminostat] (top concentration 10000 nM) | 1.74
COc1cc(OC)c(/C=C/S(=O)(=O)Cc2ccc(OC)c(NCC(=O)O)c2)c(OC)c1 [Rigosertib] (top concentration 10000 nM) | 9.06
COc1ccc(CCc2nc3cc(-c4c(C)noc4C)ccc3n2C[C@H](C)N2CCOCC2)cc1Cl [SGC-CBP30] (top concentration 25000 nM) | 2.88
CCS(=O)(=O)c1cccc(-c2cc(C(=O)NC3CCN(C)CC3)c(C)c3[nH]c4ncc(C)cc4c23)c1 [TAK-901] (top concentration 1000 nM) | 0.66
Nc1nc(NC2CC2)cc(-c2cccc(Cl)c2Cl)n1 [TH588] (top concentration 25000 nM) | 5.82
CC(=O)Nc1ccc(C(=O)Nc2ccccc2N)cc1 [Tacedinaline] (top concentration 1000 nM) | -0.02
Cn1ncnc1[C@H]1c2n[nH]c(=O)c3cc(F)cc(c23)N[C@@H]1c1ccc(F)cc1 [Talazoparib] (top concentration 1000 nM) | 3.48
COc1cccc2c1c(O)c(C(=O)N(C)c1ccc(C(F)(F)F)cc1)c(=O)n2C [Tasquinimod] (top concentration 10000 nM) | 1.08
Nc1nc2[nH]cnc2c(=S)[nH]1 [Thioguanine] (top concentration 10000 nM) | 13.1
